Experimental findings from PubChem BioAssay AID179 (DTP/NCI, 2004) are described below.

The structures appear in SMILES notation. Where “and” joins values, the source holds several entries; their conditions need not be identical. Identical values can stand only once. Calls of active or inactive are those of the source.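 How the source made its calls: active means compounds giving half or more protection of infected cells from virus-caused growth loss, again on retest; inactive means the rest.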 Where a SMILES comes first, the peptide text is derived from it. The star is where a group is joined. Cbz = O=C(OCc1ccccc1)*; NHNH2 = NN* A value given as a limit tells only on which side of the number the result lay.

For orientation: EC50 means the concentration at which the effect is half-maximal. What is called IC50 is the concentration that inhibits the measured activity by half. Low readings indicate inhibition by little substance, high ones a need for much substance.

The assay relates to CEM cells HIV-1 protection, formazan growth assay. Description: NCI AIDS Antiviral Assay. The note with it: for IC50: measured here: growth of uninfected CEM cells. The gist of the method:
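Human CEM cells, uninfected and HIV-1-infected, received five drug concentrations, and growth was read by soluble formazan assay. Compounds giving at least 50% protection were retested; reproducible 100% protection defined confirmed active.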

For `COc1cc2c(c3oc(C)c(C)c(=O)c13)C=CC(C)(C)O2`, the EC50 was greater than 200 µM and the IC50 came out at 66.1 µM. As for `Cc1ccc([N+](=O)[O-])cc1NC(=O)C(=O)C(C(=O)c1ccccc1F)C1OC(=O)c2ccccc21` (centres undefined), the EC50 was greater than 275 µM and the IC50 worked out at 8.32 µM. On the same counts, the results for `CC(NCCCNC(C)C(=O)O)C(=O)O` (centres undefined) are greater than 661 µM and greater than 661 µM.

Regarding `Cc1ccc(C(=O)N2CCN(C(=O)c3ccc(C)cc3)c3ccccc32)cc1`, the EC50 is greater than 10.2 µM and the 50% inhibitory concentration (IC50) was 1.82 µM. In the same order, the values of `CC(=O)OCCC1c2ccccc2-n2nc(-c3ccccc3)c(O)c21` (centres undefined) are greater than 200 µM and 11.2 µM. Take `O=S(=O)(O)C(F)(F)C(F)(F)C(F)(F)C(F)(F)C(F)(F)C(F)(F)C(F)(F)C(F)(F)F`: the EC50 is greater than 200 µM and the IC50 was greater than 200 µM.

For `CC(C)C(NC(=O)C1CCCN1C(=O)OCc1ccccc1)C(=O)NN` (stereo not drawn) (Cbz-Pro-Val-NHNH2; configuration not given here), the EC50 is greater than 692 µM and the concentration for half-maximal inhibition (IC50) amounted to 407 µM. As for `Oc1ccc2ccccc2c1-c1c(Nc2ccccc2)ccc2ccccc12`, the EC50 was greater than 50.1 µM and the IC50 stood at 8.91 µM. In the same order, the values of `CN(C)CCNC(=O)c1cnn(C)c1[N+](=O)[O-]` are greater than 200 µM and greater than 200 µM. On the same counts, the results for `O=c1c2ccccc2nc(-c2ccccc2)n1NC(=S)Nc1ccccc1` are greater than 135 µM and 112 µM. On the same counts, the results for `N#Cc1ccnc(C(=O)N2CCCC2C(=O)O)c1` (centres undefined) are greater than 200 µM and greater than 200 µM. On to `O=c1c2ccccc2oc2c1ccc1ncccc12`, for which the EC50 is greater than 200 µM and the IC50 came out at 6.61 µM. On the same counts, the results for `CC1=N/C(=C\c2cccc(C#N)c2)C(=O)O1` are greater than 170 µM and 97.7 µM. In the same order, the values of `CCOC(=O)NP(=O)(Nc1ccc(C)cc1)Nc1ccc(C)cc1` are greater than 200 µM and greater than 200 µM. In the same order, the values of `NNS(=O)(=O)c1ccc(/C=C2\NC(=O)NC2=O)cc1` are greater than 200 µM and greater than 200 µM. As for `Cc1ccc(N=NC2=C3Sc4ccccc4N=C2N(c2ccc(Br)cc2)C(=S)N3c2ccc(Cl)cc2)cc1`, the EC50 was greater than 45.7 µM and the IC50 was greater than 45.7 µM. With `COC(=O)C(=O)C(C(C)=O)C(=O)C(=O)Nc1ccc(C)cc1C` (centres undefined), the EC50 is greater than 112 µM and the IC50 was greater than 112 µM. Take `CN(C)CCC(CCN(C)C)=NO`: the EC50 is greater than 955 µM and the IC50 is greater than 955 µM. Regarding `O=S(=O)(O)c1cc(N=Nc2cc(S(=O)(=O)O)c3cccnc3c2O)ccc1/C=C/c1ccc(N=Nc2cc(S(=O)(=O)O)c3cccnc3c2O)cc1S(=O)(=O)O.[Cu+2].[Na+]`, the EC50 is greater than 10.7 µM and the IC50 was determined as 1.2 µM.

As for `CCOc1ccc(NC(=O)C(=O)CC(=O)c2sc(NNC(C)=O)nc2C)cc1`, the EC50 was greater than 44.7 µM and the IC50 is greater than 44.7 µM.

`C=CCCCCOC1C=CC(O)C(CO)O1` (centres undefined): the EC50 is greater than 200 µM and the IC50 was greater than 200 µM. Regarding `OC(c1nc2ccccc2s1)(C(F)(F)F)C(F)(F)F`, the outcome was inactive. Turning to `C=C1C(OO)O[C@@H]2O[C@@]3(C)CC[C@H]4[C@H](C)CC[C@@H]1[C@@]24O3` (some centres undefined), the EC50 is greater than 200 µM and the IC50 amounted to 27.5 µM. On the same counts, the results for `CCOC(=O)C1=NN(c2ccccc2)C2=CC(C)=NN(C)C(=S)N21` are greater than 200 µM and greater than 200 µM. In the same order, the values of `Cc1ccc(CCC(=O)C(=O)O)s1` are greater than 479 µM and greater than 479 µM. On to `NC(=O)c1n[nH]n(-c2ccccc2)c1=O`, for which the EC50 was greater than 200 µM and the IC50 was greater than 200 µM. Regarding `CC(C)OP(=O)(OC(C)C)C(C(C)C)N(C)/C(N)=N\C1=NC(C(F)(F)F)(C(F)(F)F)N=C(C(C(F)(F)F)C(F)(F)F)O1` (centres undefined), the EC50 is greater than 200 µM and the IC50 was 0.0631 µM. On the same counts, the results for `CC1(C)OC2C3CCC(C)(C3)C2(c2ccccc2)O1` (centres undefined) are greater than 87.1 µM and greater than 87.1 µM.

Regarding `CN(Cc1ccccc1)c1nc(=[N+](C)C)ss1`, the result was inactive.

Regarding `COC(=O)c1cc(C(=CCN[C@H]2CC[C@@]3(C)[C@@H](CC[C@@H]4[C@@H]3CC[C@]3(C)[C@@H]([C@H](C)CCCC(C)C)CC[C@@H]43)C2)c2cc(Cl)c(OC)c(C(=O)OC)c2)cc(Cl)c1OC`, the EC50 was greater than 100 µM and the IC50 is greater than 100 µM. Turning to `Cc1cccc(N2CCN(S(=O)(=O)c3ccc(Cl)cc3)C2=N)c1C`, the EC50 was greater than 200 µM and the IC50 was greater than 200 µM.

Consider `CCCCCCCCCCCCOC1OC(CO)C(O)C(O)C1O` (centres undefined), for which the EC50 was greater than 85.1 µM and the IC50 was 38 µM. On the same counts, the results for `Cc1ccc(S(=O)(=O)NC(=O)C2S(=O)(=O)OCCOS2(=O)=O)cc1` are greater than 3890 µM and 77.6 µM. On the same counts, the results for `Oc1ccc2c(c1)c1c(n2CCN2CCOCC2)-c2ccccc2CC1` are greater than 200 µM and 30.2 µM. On the same counts, the results for `CCOC(=O)C(CS)NC(=O)CCCCCCCC(=O)O` (centres undefined) are greater than 100 µM and 79.4 µM. Take `COc1cc(OC)c2c(=O)c(OC)c(-c3ccc4c(c3)OCO4)oc2c1`: the EC50 was greater than 200 µM and the IC50 is greater than 200 µM. For `C/C(=N\NC(=O)c1ccncc1)c1ccccc1F`, the EC50 was greater than 977 µM and the IC50 came to 617 µM. As for `COc1ccc(C(=O)O[C@H]2[C@@H]3C=CO[C@@H](OC4OC(CO)C(O)C(O)C4O)[C@@H]3[C@@]3(CO)O[C@@H]23)cc1O` (some centres undefined), the result was inactive. Consider `O=c1cn[nH]c2nc3ccccc3n12`, for which the EC50 is greater than 200 µM and the IC50 is greater than 200 µM. Consider `CC1CC(=O)C(CC(=O)O)C1C(C(=O)C(=O)Nc1c(C#N)cccc1[N+](=O)[O-])[N+](=O)[O-]` (centres undefined), for which the outcome was inactive.

In the case of `c1sc(NC2=NCCO2)c2c1CCCC2`, the EC50 was greater than 200 µM and the IC50 stood at 166 µM. In the same order, the values of `Cc1ccc(Nc2c(C#N)[n+]([O-])c3cc(Cl)ccc3[n+]2[O-])cc1` are greater than 20 µM and 19.1 µM. In the same order, the values of `Cc1ccc(C(=O)NC2CCCCC2)cc1N=NN(C)C` are greater than 46.8 µM and 45.7 µM. On the same counts, the results for `Cc1cccc(NC(=O)/C(=N\NC(C)(C)C)C2NC(=S)NC2=O)c1C` (centres undefined) are greater than 72.4 µM and greater than 72.4 µM.

As to `CCCCCCOc1ccc(C(=O)NOC)cc1`, the EC50 was greater than 200 µM and the IC50 stood at 110 µM. In the same order, the values of `CC(NC(CC12CC3CC(CC(C3)C1)C2)C(N)=O)c1ccccc1` (centres undefined) are greater than 200 µM and 34.7 µM. `C/C(=N/NS(=O)(=O)c1ccc(N)cc1)c1ccccc1O`: the EC50 is greater than 117 µM and the IC50 is greater than 117 µM.

For the compound `O=C(NCCN1CCCCC1)c1cccc(I)c1`, the EC50 was greater than 200 µM and the IC50 is greater than 200 µM. As for `CCCCOP(=O)(OCCCC)/C(C#N)=C/c1ccco1`, the EC50 was greater than 219 µM and the IC50 stood at 178 µM. On to `O=c1[nH]ccc2c1ccn2C1CC(O)C(CO)O1` (centres undefined), for which the result was inactive. Regarding `N[C@@H]1c2c(Br)sc(Br)c2C(=O)[C@H]1Br`, the EC50 is greater than 200 µM; the IC50 was 23.4 µM and 26.9 µM. As for `CC(C)=CCCc1c(C)ccc2c1C(=O)C(=O)C(C(C)C)=C2O`, the EC50 was greater than 57.5 µM and the IC50 stood at 33.9 µM.

Regarding `CCOC(=O)C(=[N+]=[N-])C(=O)C[N+]12CCN(CC1)CC2`, the EC50 was greater than 200 µM and the IC50 is greater than 200 µM. For `Cc1cc2cc(Cl)ccc2nc1C(=O)c1ccccc1`, the EC50 was greater than 2.57 µM and the IC50 is greater than 2.57 µM. Take `CCCCOC(=O)NC(Nc1ccc(S(=O)(=O)Nc2ccc(OC)nn2)cc1)(C(F)(F)F)C(F)(F)F`: the EC50 is greater than 200 µM and the IC50 is greater than 200 µM. For `COC(=O)C(CC=O)C(=O)C(=O)Nc1cccc(C(F)(F)F)c1` (centres undefined), the EC50 is greater than 282 µM and the IC50 was greater than 282 µM. For `CC1(C)CC(=O)C2=C(C1)OC1=C(CC(C)(C)CC1=O)C2c1ccccc1Cl` (centres undefined), the EC50 was greater than 200 µM and the IC50 came to 162 µM.

Consider `C[N+]1(Cc2ccco2)CCCCC1`, for which the EC50 is greater than 813 µM and the IC50 was greater than 813 µM.

For the compound `O=c1cc2[nH]cnc2c(O)[nH]1`, the EC50 was greater than 89.1 µM and the IC50 was greater than 89.1 µM. As for `Cc1cn(CCCCOC(=O)NC(CCCNC(N)=O)C(=O)O)c(=O)[nH]c1=O` (centres undefined), the EC50 was greater than 200 µM and the IC50 is greater than 200 µM. Take `CN(C)CCNC(=O)c1nc([N+](=O)[O-])cn1C`: the EC50 was greater than 200 µM and the IC50 was greater than 200 µM. For `Cc1nc(-c2cccnc2)sc1C(=O)/C=C/c1cccc([N+](=O)[O-])c1`, the EC50 is greater than 74.1 µM and the IC50 was greater than 74.1 µM. Consider `CC(C)=CCC/C(C)=C/CC/C(C)=C/CC/C=C(\C)CC/C=C(\C)CCC1SC1(C)C` (centres undefined), for which the EC50 is greater than 200 µM and the IC50 is greater than 200 µM. On to `Cc1ccc(NC(=O)CC2C(=O)Nc3ccccc3S2=O)c(C)c1` (centres undefined), for which the EC50 is greater than 15.1 µM and the IC50 was greater than 15.1 µM. Consider `O=[N+]([O-])c1ccc2nsnc2c1`, for which the EC50 is greater than 105 µM and the IC50 came to 47.9 µM. On the same counts, the results for `CC(C)C(/C=C/c1ccc(Cl)c(Cl)c1)=N\NC(=O)N/N=C(/C=C/c1ccc(Cl)c(Cl)c1)C(C)C` are greater than 200 µM and greater than 200 µM.

Regarding `CC1C(=O)C(C)C(c2ccccc2)NC1c1ccccc1` (centres undefined), the EC50 was greater than 67.6 µM and the IC50 was greater than 67.6 µM. As for `COc1ccc(-c2c3c(n(C4OC(COC(C)=O)C(OC(C)=O)C(OC(C)=O)C4OC(C)=O)c(=S)c2C#N)CCCC3)cc1` (centres undefined), the EC50 was greater than 200 µM and the IC50 was determined as 89.1 µM. On the same counts, the results for `O=C(O)/C(=C/c1ccccc1[N+](=O)[O-])c1cccs1` are greater than 912 µM and 457 µM. On the same counts, the results for `CC(=O)OC1=NC(C)c2c1cc(OC(C)=O)[nH]c2=O` (centres undefined) are greater than 14.5 µM and greater than 14.5 µM. On the same counts, the results for `O=C(Nc1ccc(F)cc1)Nc1ccc(Nc2ccccc2)cc1` are greater than 200 µM and greater than 200 µM. For the compound `COc1ccc(CCc2cc(OC)c(O)c(OC)c2)cc1`, the EC50 is greater than 200 µM and the IC50 is 10.5 µM.
